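Five concentrations, 48 hours, 96-well plates. TGI marks complete inhibition of growth.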
Assays:
Assay in all cases: NCI anticancer screen, dose series, 48 h
KM12 colon = system: KM12 colon
OVCAR-8 ovarian = system: OVCAR-8 ovarian
HOP-62 NSCLC = system: HOP-62 NSCLC
IGROV1 ovarian = system: IGROV1 ovarian
NCI-H522 lung = system: NCI-H522 lung
HT29 colon = system: HT29 colon
RPMI-8226 leukemia = system: RPMI-8226 leukemia
A498 renal = system: A498 renal
CCRF-CEM leukemia = system: CCRF-CEM leukemia
HL-60(TB) leukemia = system: HL-60(TB) leukemia
786-0 renal = system: 786-0 renal
NCI-H23 lung = system: NCI-H23 lung
OVCAR-4 ovarian = system: OVCAR-4 ovarian
RXF 393 renal = system: RXF 393 renal
EKVX NSCLC = system: EKVX NSCLC
MDA-MB-435 = system: MDA-MB-435
BT-549 breast = system: BT-549 breast
MCF7 breast = system: MCF7 breast
PC-3 prostate = system: PC-3 prostate

Compound | TGI (KM12 colon) [µM] | TGI (OVCAR-8 ovarian) [µM] | TGI (HOP-62 NSCLC) [µM] | TGI (IGROV1 ovarian) [µM] | TGI (NCI-H522 lung) [µM] | TGI (HT29 colon) [µM] | TGI (RPMI-8226 leukemia) [µM] | TGI (A498 renal) [µM] | TGI (CCRF-CEM leukemia) [µM] | TGI (HL-60(TB) leukemia) [µM] | TGI (786-0 renal) [µM] | TGI (NCI-H23 lung) [µM] | TGI (OVCAR-4 ovarian) [µM] | TGI (RXF 393 renal) [µM] | TGI (EKVX NSCLC) [µM] | TGI (MDA-MB-435) [µM] | TGI (BT-549 breast) [µM] | TGI (MCF7 breast) [µM] | TGI (PC-3 prostate) [µM]
CCOC(=O)N1c2c(ccn2C)-c2ccn(C)c2N1C(=O)OCC | 57.3 | 27.9 | > 100 | 52.4 | 25 | 30.1 | 54.3 | > 100 | 13.8 | 26.7 | 23.1 | – | – | – | – | – | – | – | –
COc1ccccc1C(O)(c1ccccc1)C(O)(c1ccccc1)c1ccccc1OC (centres undefined) | > 100 | > 100 | > 100 | > 100 | > 100 | > 100 | > 100 | > 100 | > 100 | > 100 | > 100 | > 100 | > 100 | > 100 | > 100 | – | – | – | –
C/C=C1\C=C(OC)CN(CCc2c[nH]c3ccccc23)C1 | > 100 | > 100 | > 100 | > 100 | > 100 | > 100 | > 100 | > 100 | > 100 | > 100 | > 100 | > 100 | > 100 | – | > 100 | – | – | – | –
Cc1ccccc1NC(=O)c1c(C)oc2c1C(=O)c1ccccc1C2=O | > 100 | > 100 | > 100 | > 100 | 35.8 | > 100 | 60.9 | > 100 | 48.1 | 56.9 | > 100 | 93.5 | > 100 | > 100 | > 100 | – | – | – | –
O=C1Cc2c([nH]c3ccccc23)-c2ccccc2N1 | 45.2 | > 100 | 97.7 | 70.8 | 62.6 | 69 | > 100 | > 100 | > 100 | > 100 | > 100 | 61.1 | > 100 | 40.7 | > 100 | – | – | – | –
Cc1nc(C(N)=S)sc1C(=O)CC(=O)C(=O)Nc1ccccc1[N+](=O)[O-] | > 100 | > 100 | > 100 | > 100 | > 100 | > 100 | > 100 | > 100 | > 100 | > 100 | > 100 | > 100 | > 100 | > 100 | > 100 | – | – | – | –
O=C(O)C1CCCCC1C(=O)Nn1cnnc1 (centres undefined) | > 100 | > 100 | > 100 | > 100 | > 100 | > 100 | > 100 | – | > 100 | – | > 100 | > 100 | > 100 | > 100 | > 100 | > 100 | > 100 | > 100 | > 100
O=C1[C@H]2ON(c3ccccc3)C(c3ccccc3)[C@H]2C(=O)N1c1ccc(Cc2ccc(N3C(=O)[C@@H]4ON(c5ccccc5)C(c5ccccc5)[C@@H]4C3=O)cc2)cc1 (some centres undefined) | > 100 | – | > 100 | > 100 | – | > 100 | > 100 | > 100 | > 100 | > 100 | > 100 | > 100 | > 100 | > 100 | – | – | – | – | –
Cc1n[nH]c(=O)n1/N=C/c1ccc(F)cc1 | > 100 | > 100 | > 100 | – | > 100 | – | > 100 | > 100 | > 100 | – | > 100 | > 100 | > 100 | > 100 | > 100 | > 100 | > 100 | – | –
CC(=O)[C@@H]1C/C(=C\OCc2ccccc2)O[C@H]1C | > 100 | > 100 | > 100 | > 100 | > 100 | > 100 | > 100 | > 100 | – | – | > 100 | > 100 | > 100 | > 100 | > 100 | > 100 | > 100 | – | –
Cc1ccc(/C(O)=C/c2nc3c(nc2NC24CC5CC(CC(C5)C2)C4)c(=O)oc2ccccc23)cc1 | > 100 | > 100 | > 100 | > 100 | > 100 | > 100 | > 100 | – | > 100 | > 100 | > 100 | > 100 | – | > 100 | > 100 | – | – | – | –
CN(C)CC1CN=C(N)O1 (centres undefined) | > 100 | – | > 100 | – | > 100 | – | > 100 | > 100 | > 100 | – | > 100 | > 100 | > 100 | > 100 | > 100 | > 100 | – | > 100 | > 100
CC(=O)NC1=C(NC(C)(C)C)C(=O)c2ccccc2C1=O | 92.9 | 39.5 | > 100 | 70.4 | – | 49.7 | 37.1 | 50.2 | 9.28 | 5.6 | 11.6 | 35.2 | 36.6 | 33.3 | 99.2 | – | – | – | –

Source: PubChem BioAssay (NCI)
